Measurements: article PMC4348352 (Bioorganic & medicinal chemistry letters, 2015)
Converted amounts (≈) assume the structure as drawn.

Legend:
F. tularensis = experiment: microbe, parasite or virus in culture; type: cell-based; conditions: Francisella tularensis
E. coli TolC- = experiment: microbe, parasite or virus in culture; type: cell-based; conditions: Escherichia coli
S. aureus = conditions: cited from earlier work
B. anthracis = conditions: cited from earlier work
E. coli = conditions: cited from earlier work

SMILES	MIC (F. tularensis) [µg/mL]	MBC (E. coli TolC-) [µg/mL]	MIC (S. aureus) [µg/mL]	MIC (B. anthracis) [µg/mL]	MIC (E. coli) [µg/mL]
CC(c1ccc(Cl)c(Cl)c1)n1cnc2cc3c(cc21)CCCC3 (stereo not drawn) [Compound 4]	3.1 to 6.3 (≈ 8.98 to 18.2 µM)	> 25			
Cc1cc2ncn(Cc3ccc(Cl)c(Cl)c3)c2cc1C [Compound 1]			25 (≈ 81.9 µM)	9.4 (≈ 30.8 µM)	>200
CC(c1ccc(Cl)c(Cl)c1)n1cnc2cc3c(cc21)CCC3 (stereo not drawn) [Compound 3]	3.1 to 6.3 (≈ 9.36 to 19 µM)				
